According to the supplement of paper PMC4862054:

Tests used:
Assay in all cases: normalised viability (% of control), CellTiter-Blue; higher = more viable cells (about 100 = DMSO control)
Conditions in all cases: incubation time: 72 h
[1] = test system: BT-549
Method in brief: (§1)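 Each entry is normalised viability at a single listed concentration within a series. It comes from breast cancer cell lines incubated 72 h with compound in 384-well plates, then measured with CellTiter-Blue fluorescence at 560/590 nm. Every plate was normalised between vehicle (100) and a positive kill control (0).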

[2] = test system: CAL-148
Method in brief: as §1

[3] = test system: CAL-85-1
Method in brief: as §1

[4] = test system: HCC1937
Method in brief: as §1

[5] = test system: HDQ-P1
Method in brief: as §1

[6] = test system: MDA-MB-231
Method in brief: as §1

[7] = test system: MDA-MB-468
Method in brief: as §1

[8] = test system: SK-BR-3
Method in brief: as §1

[9] = test system: BT-474
Method in brief: as §1

[10] = test system: BT-549; remark: listed apart in the source
Method in brief: as §1

[11] = test system: CAL-120
Method in brief: as §1

[12] = test system: CAL-148; remark: listed apart in the source
Method in brief: as §1

[13] = test system: CAL-51
Method in brief: as §1

[14] = test system: DU-4475
Method in brief: as §1

[15] = test system: HCC1599
Method in brief: as §1

[16] = test system: HCC1937; remark: listed apart in the source
Method in brief: as §1

[17] = test system: HDQ-P1; remark: listed apart in the source
Method in brief: as §1

[18] = test system: Hs578T
Method in brief: as §1

[19] = test system: MDA-MB-436
Method in brief: as §1

[20] = test system: MFM-223
Method in brief: as §1

[21] = test system: SK-BR-3; remark: listed apart in the source
Method in brief: as §1

[22] = test system: CAL-148; remark: listed apart in the source
Method: (§2)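 DSRT, CellTiter-Blue viability, 72 h incubation. Signal is normalised to DMSO and benzethonium chloride controls. Value is the normalised response at dose 6.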

[23] = test system: CAL-51; remark: listed apart in the source
Method: as §2

[24] = test system: CAL-85-1; remark: listed apart in the source
Method: as §2

[25] = test system: DU-4475; remark: listed apart in the source
Method: as §2

[26] = test system: HDQ-P1; remark: listed apart in the source
Method: as §2

[27] = test system: MDA-MB-453
Method: as §2

N#Cc1ccc(C(c2ccc(C#N)cc2)n2cncn2)cc1 [Letrozole]
Conditions	normalised viability [%]
[1], 100 nM	97
[2], 10 nM	87.8
[3], 10 nM	90.3
[4], 100 nM	97.4
[5], 10 nM	101
[6], 100 nM	84
[7], 100 nM	91.3
[8], 100 nM	83
[9], 10 nM	105
[9], 1000 nM	109
[9], 10000 nM	109
[10], 10 nM	83.5
[10], 1000 nM	84
[10], 10000 nM	90.5
[11], 10 nM	72.4
[11], 1000 nM	86.6
[11], 10000 nM	80.2
[12], 3 nM	93.8
[12], 30 nM	93
[12], 100 nM	94.8
[13], 3 nM	115
[13], 30 nM	107
[13], 100 nM	103
[14], 3 nM	94.6
[14], 30 nM	81.4
[14], 100 nM	82
[15], 10 nM	81.2
[15], 1000 nM	70.7
[15], 10000 nM	81.9
[16], 10 nM	81.8
[16], 1000 nM	82.6
[16], 10000 nM	82
[17], 3 nM	90.8
[17], 30 nM	79.5
[17], 100 nM	84.5
[18], 10 nM	91.8
[18], 1000 nM	91
[18], 10000 nM	98.9
[19], 10 nM	113
[19], 1000 nM	96.1
[19], 10000 nM	105
[20], 10 nM	58.8
[20], 1000 nM	70.5
[20], 10000 nM	49.2
[21], 10 nM	79.4
[21], 1000 nM	103
[21], 10000 nM	85.2
[22], 300 nM	101
[23], 300 nM	104
[24], 300 nM	86.4
[25], 300 nM	81.2
[26], 300 nM	69.4
[27], 300 nM	100

CCN(CC)CCCC(C)Nc1c2ccc(Cl)cc2nc2ccc(OC)cc12 (centres undefined) [Mepacrine]
Conditions	normalised viability [%]
[1], 9.9 nM	86.1
[1], 100 nM	90.3
[2], 0.99 nM	116
[2], 10 nM	107
[3], 0.99 nM	99
[3], 10 nM	92.6
[4], 9.9 nM	99.4
[4], 100 nM	87.4
[5], 0.99 nM	117
[5], 10 nM	114
[6], 9.9 nM	95.2
[6], 100 nM	89.8
[7], 9.9 nM	110
[7], 100 nM	105
[8], 9.9 nM	99.8
[8], 100 nM	91.3
[9], 0.99 nM	113
[9], 10 nM	111
[9], 99 nM	104
[9], 990 nM	41.1
[9], 1000 nM	116
[9], 10000 nM	2.65
[10], 0.99 nM	87
[10], 10 nM	87.2
[10], 99 nM	82.2
[10], 990 nM	37.6
[10], 1000 nM	88.9
[10], 10000 nM	17.8
[11], 0.99 nM	114
[11], 10 nM	102
[11], 99 nM	109
[11], 990 nM	16.3
[11], 1000 nM	89.6
[11], 10000 nM	5.76
[12], 0.297 nM	118
[12], 2.97 nM	110
[12], 3 nM	98.7
[12], 9.9 nM	129
[12], 30 nM	106
[12], 100 nM	102
[13], 0.297 nM	89.1
[13], 2.97 nM	91.4
[13], 3 nM	105
[13], 9.9 nM	96.2
[13], 30 nM	97.8
[13], 100 nM	93.3
[14], 0.297 nM	112
[14], 2.97 nM	88
[14], 3 nM	92.6
[14], 9.9 nM	101
[14], 30 nM	89.1
[14], 100 nM	96.9
[15], 0.99 nM	105
[15], 10 nM	85.5
[15], 99 nM	82.1
[15], 990 nM	67.3
[15], 1000 nM	79.5
[15], 10000 nM	30.9
[16], 0.99 nM	118
[16], 10 nM	108
[16], 99 nM	78.7
[16], 990 nM	15.8
[16], 1000 nM	63.6
[16], 10000 nM	10.7
[17], 0.297 nM	113
[17], 2.97 nM	109
[17], 3 nM	112
[17], 9.9 nM	104
[17], 30 nM	113
[17], 100 nM	116
[18], 0.99 nM	111
[18], 10 nM	107
[18], 99 nM	118
[18], 990 nM	38.5
[18], 1000 nM	122
[18], 10000 nM	21.6
[19], 0.99 nM	109
[19], 10 nM	101
[19], 99 nM	105
[19], 990 nM	33
[19], 1000 nM	81.4
[19], 10000 nM	9.64
[20], 0.99 nM	107
[20], 10 nM	101
[20], 99 nM	94.8
[20], 990 nM	44.5
[20], 1000 nM	100
[20], 10000 nM	20.9
[21], 0.99 nM	100
[21], 10 nM	110
[21], 99 nM	104
[21], 990 nM	27.9
[21], 1000 nM	101
[21], 10000 nM	2.49
[22], 29.7 nM	105
[22], 300 nM	102
[23], 29.7 nM	86.1
[23], 300 nM	104
[24], 29.7 nM	101
[24], 300 nM	100
[25], 29.7 nM	88.3
[25], 300 nM	80.9
[26], 29.7 nM	117
[26], 300 nM	109
[27], 29.7 nM	103
[27], 300 nM	101
